This is an account of results in US20230110595A1, “MIXTURE OF PYRETHROIDS AND MILBEMYCINS AND USES THEREOF” (Valent BioSciences LLC, priority 2021, published 2023).

Holding throughout (type): in vivo
Series [1] concerns Permethrin Susceptible C. quinquefasciatus. The series is described as follows: Wind tunnel bioassay, adult mosquitoes, Example 2 (September 2021). The protocol: (§1) In this bioassay, a wind tunnel bioassay was performed in the United States of America in September 2021. Culex quinquefasciatus that were known to be resistant and susceptible to permethrin were used in the studies. The following solutions were applied to adult C. quinquefasciatus mosquitoes: 1) 0.5% moxidectin; 2) 0.5% pyrethrum; and 3) a mixture of 0.5% pyrethrum and 0.5% moxidectin.
(§2) Percent mortality was recorded at 15 minutes (“Min”), 1 hour (“Hr”), 24 hours and 48 hours. OCE:ECE ratios were calculated as in Example 1, above.

Series [2] relates to Permethrin Resistant C. quinquefasciatus. Described as above. Here is the method: as §1, §2
Series [3] concerns Permethrin Susceptible C. quinquefasciatus. Put plainly: Wind tunnel bioassay, adult mosquitoes, Example 1 (May 2021). The protocol: (§3) In this bioassay, a wind tunnel bioassay was performed in the United States of America in May 2021. Culex quinquefasciatus that were known to be resistant and susceptible to permethrin were used in the studies. The following solutions were applied to adult C. quinquefasciatus mosquitoes: 1) 1.5% moxidectin; 2) 5% permethrin; 3) 2.5% pyrethrum; 4) a mixture of 5% permethrin and 1.5% moxidectin; and 5) a mixture of 2.5% pyrethrum and 1.5% moxidectin.
(§4) To determine if the mixtures provided unexpected results, the observed combined efficacy (“OCE”) was divided by the expected combined efficacy (“ECE”) wherein the expected ECE is calculated by the Abbott method: […]
(§5) wherein ECE is the expected combined efficacy and in which A and B are the percent control given by the single active ingredients. If the ratio between the OCE of the mixture and the ECE of the mixture is greater than 1, then greater than expected interactions are present in the mixture. (Gisi, Synergistic Interaction of Fungicides in Mixtures, The American Phytopathological Society, 86:11, 1273-1279, 1996). Percent mortality was recorded at 15 minutes (“Min”), 1 hour (“Hr”), 24 hours and 48 hours.

Series [4] relates to Permethrin Resistant C. quinquefasciatus. Described as above. The protocol:
as §3, §4, §5

Consider `CO/N=C1\C[C@]2(C[C@@H]3C[C@@H](C/C=C(\C)C[C@@H](C)/C=C/C=C4\CO[C@@H]5[C@H](O)C(C)=C[C@@H](C(=O)O3)[C@]45O)O2)O[C@H](/C(C)=C/C(C)C)[C@H]1C` [0.5% Moxidectin, moxidectin], for which the “% Mortality” value in series [1] (1 Hr) is 26.25%; in series [1] (15 Min) it was 1.25%; in series [1] (24 Hr), 95.00%; in series [1] (48 Hr), 95.00%; in series [2] (1 Hr), 0.00%; in series [2] (15 Min), 0.00%. Moreover, the figures for the “% Mortality” value in series [2] (24 Hr) and in series [2] (48 Hr) were 11.25% and 8.75%, respectively.
In the case of `CO/N=C1\C[C@]2(C[C@@H]3C[C@@H](C/C=C(\C)C[C@@H](C)/C=C/C=C4\CO[C@@H]5[C@H](O)C(C)=C[C@@H](C(=O)O3)[C@]45O)O2)O[C@H](/C(C)=C/C(C)C)[C@H]1C` [1.5% Moxidectin, moxidectin], the “% Mortality” value in series [3] (1 Hr) is 67.5%; in series [3] (15 Min) it was 53.75%; in series [3] (24 Hr), 92.5%; in series [3] (48 Hr), 92.5%; in series [4] (1 Hr), 0%; in series [4] (15 Min), 15%. For the same compound, the entries for the “% Mortality” value in series [4] (24 Hr) and in series [4] (48 Hr) were 68.75% and 50%, respectively.
`CC1(C)C(C=C(Cl)Cl)C1C(=O)OCc1cccc(Oc2ccccc2)c1` (stereo not shown) [5% Permethrin, permethrin]: the “% Mortality” value in series [3] (1 Hr) came to 100%; in series [3] (15 Min), 100%; in series [3] (24 Hr) it was 100%; in series [3] (48 Hr) it was 100%; in series [4] (1 Hr), 81.25%; in series [4] (15 Min), 35%. The figures for the “% Mortality” value in series [4] (24 Hr) and in series [4] (48 Hr) were 97.5% and 96.25%, respectively. Besides, the control in series [3] (span over 15 minutes to 48 hours) is listed as approximately 100%.
